From BindingDB's records for doi:10.1021/jm00075a032 (University of Bologna, 1993)

How the values were obtained:
[1] = target: T1, Muscarinic acetylcholine receptor M1 (Rattus norvegicus, UniProt P08482)
T1 sequence (P08482 whole entry): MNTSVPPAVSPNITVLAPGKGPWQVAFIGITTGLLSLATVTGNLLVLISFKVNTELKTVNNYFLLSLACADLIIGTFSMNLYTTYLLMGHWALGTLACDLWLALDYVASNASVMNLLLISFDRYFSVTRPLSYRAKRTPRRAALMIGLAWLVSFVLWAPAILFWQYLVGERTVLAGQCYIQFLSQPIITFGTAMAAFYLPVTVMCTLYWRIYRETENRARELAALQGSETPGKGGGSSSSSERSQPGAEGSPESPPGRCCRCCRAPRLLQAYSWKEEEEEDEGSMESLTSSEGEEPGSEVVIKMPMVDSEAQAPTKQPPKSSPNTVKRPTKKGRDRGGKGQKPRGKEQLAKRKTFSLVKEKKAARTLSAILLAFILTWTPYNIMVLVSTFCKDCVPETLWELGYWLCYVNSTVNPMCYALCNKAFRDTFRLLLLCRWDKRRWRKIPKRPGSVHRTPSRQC

[2] = target: T2, Muscarinic acetylcholine receptor M4 (Rattus norvegicus, UniProt P08485)
T2 sequence (P08485 whole entry): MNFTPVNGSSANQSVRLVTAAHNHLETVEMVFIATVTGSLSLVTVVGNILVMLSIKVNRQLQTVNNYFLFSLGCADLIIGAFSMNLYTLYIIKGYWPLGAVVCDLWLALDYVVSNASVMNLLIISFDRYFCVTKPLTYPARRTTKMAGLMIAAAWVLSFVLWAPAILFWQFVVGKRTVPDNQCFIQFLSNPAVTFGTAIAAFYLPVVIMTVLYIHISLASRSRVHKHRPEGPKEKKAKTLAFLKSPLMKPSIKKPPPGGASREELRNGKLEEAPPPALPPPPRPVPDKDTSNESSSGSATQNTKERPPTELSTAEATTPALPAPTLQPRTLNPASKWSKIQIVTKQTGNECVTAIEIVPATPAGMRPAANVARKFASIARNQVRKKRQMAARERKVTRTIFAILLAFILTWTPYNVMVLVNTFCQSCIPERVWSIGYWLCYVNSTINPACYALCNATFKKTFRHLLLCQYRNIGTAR

[3] = target: T3, Muscarinic acetylcholine receptor M2 (Rattus norvegicus, UniProt P10980)
T3 sequence (P10980 whole entry): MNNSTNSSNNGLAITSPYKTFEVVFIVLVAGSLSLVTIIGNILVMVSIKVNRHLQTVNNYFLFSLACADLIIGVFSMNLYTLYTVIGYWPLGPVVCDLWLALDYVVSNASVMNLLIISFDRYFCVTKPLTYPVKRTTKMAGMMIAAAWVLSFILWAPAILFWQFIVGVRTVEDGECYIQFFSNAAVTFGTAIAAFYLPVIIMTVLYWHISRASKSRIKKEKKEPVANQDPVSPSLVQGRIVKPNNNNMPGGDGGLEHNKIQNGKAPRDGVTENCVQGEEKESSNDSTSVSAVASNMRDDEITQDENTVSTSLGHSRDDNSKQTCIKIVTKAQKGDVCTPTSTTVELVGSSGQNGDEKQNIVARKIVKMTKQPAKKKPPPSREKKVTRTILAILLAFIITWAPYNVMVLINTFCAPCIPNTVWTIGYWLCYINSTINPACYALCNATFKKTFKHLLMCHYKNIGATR

[4] = target: Muscarinic acetylcholine receptor M3 (Rattus norvegicus, UniProt P08483)
Sequence of Muscarinic acetylcholine receptor M3 (P08483 whole entry): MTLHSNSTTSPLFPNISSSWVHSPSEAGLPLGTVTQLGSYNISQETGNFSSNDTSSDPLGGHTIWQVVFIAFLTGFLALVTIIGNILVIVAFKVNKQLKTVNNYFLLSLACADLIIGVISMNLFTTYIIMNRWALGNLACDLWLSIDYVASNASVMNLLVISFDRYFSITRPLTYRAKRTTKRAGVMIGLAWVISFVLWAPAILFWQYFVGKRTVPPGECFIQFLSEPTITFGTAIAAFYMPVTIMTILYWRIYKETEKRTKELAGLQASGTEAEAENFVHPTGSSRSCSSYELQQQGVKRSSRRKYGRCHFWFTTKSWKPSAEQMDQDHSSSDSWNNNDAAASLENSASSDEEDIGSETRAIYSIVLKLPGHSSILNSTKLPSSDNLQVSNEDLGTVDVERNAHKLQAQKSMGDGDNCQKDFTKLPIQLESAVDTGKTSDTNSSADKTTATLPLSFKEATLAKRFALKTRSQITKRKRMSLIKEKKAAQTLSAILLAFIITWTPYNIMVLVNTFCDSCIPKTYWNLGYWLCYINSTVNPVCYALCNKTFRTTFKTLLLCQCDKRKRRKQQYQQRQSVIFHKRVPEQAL

Ki [1]: 0.0234 µM | Ki [2]: 0.0117 µM | Ki [3]: 0.00029 µM | Ki [4]: 0.646 µM
Structure (SMILES): CN(CCCCCCNCCCCCCCCNCCCCCCN(CN1c2ccccc2C(=O)Nc2cccnc21)CN1c2ccccc2C(=O)Nc2cccnc21)CN1c2ccccc2C(=O)Nc2cccnc21 [methoctramine analog 5]
